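Exposure lasted 48 hours, with cells grown in 96-well plates and compounds tested at five concentrations. At the GI50, growth is halved.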 Calls of active or inactive are those of the source. No stated cut-off is given here; in the data, active = GI50 up to about 1.1 µM and inactive = higher.
Columns and labels:
Assay in all cases: inhibition of tumour cell growth, NCI panel, 48 h
A549 = test system: A549
UACC-62 = test system: UACC-62
KM-20L2 = test system: KM-20L2
SF-268 = test system: SF-268
DMS-114 = test system: DMS-114
RXF 393 = test system: RXF 393
OVCAR-3 = test system: OVCAR-3
HCC 2998 = test system: HCC 2998
SK-MEL-2 = test system: SK-MEL-2
SK-MEL-5 = test system: SK-MEL-5
HOP-62 = test system: HOP-62
OVCAR-8 = test system: OVCAR-8
MOLT-4 = test system: MOLT-4
LOX IMVI = test system: LOX IMVI
EKVX = test system: EKVX
SNB-78 = test system: SNB-78
KM12 = test system: KM12
SF-295 = test system: SF-295
SK-MEL-28 = test system: SK-MEL-28
OVCAR-5 = test system: OVCAR-5
UACC-257 = test system: UACC-257
DMS-273 = test system: DMS-273
786-0 = test system: 786-0
XF498 = test system: XF498
U-251 = test system: U-251
CCRF-CEM = test system: CCRF-CEM
A498 = test system: A498
M19-MEL = test system: M19-MEL
HCT-15 = test system: HCT-15
M14 = test system: M14
IGROV-1 = test system: IGROV-1
NCI-H23 = test system: NCI-H23
Malme-3M = test system: Malme-3M
SF-539 = test system: SF-539
UO-31 = test system: UO-31
SW-620 = test system: SW-620
NCI-H226 = test system: NCI-H226
ACHN = test system: ACHN
HCT-116 = test system: HCT-116
COLO 205 = test system: COLO 205
NCI-H460 = test system: NCI-H460
SN12C = test system: SN12C
SK-OV-3 = test system: SK-OV-3
K562 = test system: K562
SNB-19 = test system: SNB-19
RPMI-8226 = test system: RPMI-8226
CAKI-1 = test system: CAKI-1
TK-10 = test system: TK-10
SNB-75 = test system: SNB-75
LXFL 529 = test system: LXFL 529
NCI-H522 = test system: NCI-H522
OVCAR-4 = test system: OVCAR-4
DLD-1 = test system: DLD-1
HOP-18 = test system: HOP-18
SR = test system: SR
HL-60 = test system: HL-60
HOP-92 = test system: HOP-92
HT-29 = test system: HT-29

For Cc1cc(C)nc(NS(=O)(=O)c2ccc(NC(=O)c3cccc4c(N)c5ccccc5nc34)cc2)n1, the GI50 (A549) was > 100 µM (inactive), the GI50 (UACC-62) was > 100 µM (inactive) and the GI50 (KM-20L2) was 88.7 µM (inactive). For the same compound, the GI50 (SF-268) was > 100 µM (inactive), the GI50 (DMS-114) was > 100 µM (inactive) and the GI50 (RXF 393) was > 100 µM (inactive). For the same compound, the GI50 (OVCAR-3) was > 100 µM (inactive), the GI50 (HCC 2998) was 67.1 µM (inactive) and the GI50 (SK-MEL-2) was > 100 µM (inactive). For the same compound, the GI50 (SK-MEL-5) was > 100 µM (inactive), the GI50 (HOP-62) was > 100 µM (inactive) and the GI50 (OVCAR-8) was 65.8 µM (inactive). For the same compound, the GI50 (MOLT-4) was 35 µM (inactive), the GI50 (LOX IMVI) was 53.6 µM (inactive) and the GI50 (EKVX) was > 100 µM (inactive). The GI50 (SNB-78) was > 100 µM (inactive), the GI50 (KM12) was 40.6 µM (inactive) and the GI50 (SF-295) was > 100 µM (inactive). The GI50 (SK-MEL-28) was > 100 µM (inactive), the GI50 (OVCAR-5) was > 100 µM (inactive) and the GI50 (UACC-257) was > 100 µM (inactive). For the same compound, the GI50 (DMS-273) was > 100 µM (inactive), the GI50 (786-0) was > 100 µM (inactive) and the GI50 (XF498) was > 100 µM (inactive). The GI50 (U-251) was 97.5 µM (inactive), the GI50 (CCRF-CEM) was 26.2 µM (inactive) and the GI50 (A498) was > 100 µM (inactive). For the same compound, the GI50 (M19-MEL) was > 100 µM (inactive), the GI50 (HCT-15) was greater than 100 µM and the GI50 (M14) was > 100 µM (inactive). The GI50 (IGROV-1) was > 100 µM (inactive), the GI50 (NCI-H23) was > 100 µM (inactive) and the GI50 (Malme-3M) was > 100 µM (inactive). For the same compound, the GI50 (SF-539) was 31.6 µM (inactive), the GI50 (UO-31) was > 100 µM (inactive) and the GI50 (SW-620) was > 100 µM (inactive). For the same compound, the GI50 (NCI-H226) was > 100 µM (inactive), the GI50 (ACHN) was > 100 µM (inactive) and the GI50 (HCT-116) was 90.6 µM (inactive). For the same compound, the GI50 (COLO 205) was > 100 µM (inactive), the GI50 (NCI-H460) was > 100 µM (inactive) and the GI50 (SN12C) was > 100 µM (inactive). The GI50 (SK-OV-3) was > 100 µM (inactive), the GI50 (K562) was 63.8 µM (inactive) and the GI50 (SNB-19) was > 100 µM (inactive). For the same compound, the GI50 (RPMI-8226) was 34.2 µM (inactive), the GI50 (CAKI-1) was > 100 µM (inactive) and the GI50 (TK-10) was > 100 µM (inactive). The GI50 (SNB-75) was > 100 µM (inactive), the GI50 (LXFL 529) was > 100 µM (inactive) and the GI50 (NCI-H522) was > 100 µM (inactive). For the same compound, the GI50 (OVCAR-4) was > 100 µM (inactive) and the GI50 (DLD-1) was > 100 µM (inactive).
CCC/C=C\C=C\C1(NS(=O)(=O)c2ccc(C)cc2)CCC(C(C)(C)C)CC1 (stereo not drawn) was tested, and the GI50 (A549) was 15.4 µM (inactive), the GI50 (UACC-62) was 21.3 µM (inactive) and the GI50 (KM-20L2) was 16.9 µM (inactive). For the same compound, the GI50 (SF-268) was 17.4 µM (inactive), the GI50 (RXF 393) was 13.7 µM (inactive) and the GI50 (OVCAR-3) was 7.01 µM (inactive). For the same compound, the GI50 (HCC 2998) was 16.9 µM (inactive), the GI50 (SK-MEL-2) was 13.5 µM (inactive) and the GI50 (HOP-18) was 14.9 µM (inactive). For the same compound, the GI50 (SR) was 3.15 µM (inactive), the GI50 (SK-MEL-5) was 16.7 µM (inactive) and the GI50 (HOP-62) was 20.7 µM (inactive). For the same compound, the GI50 (OVCAR-8) was > 10 µM (inactive), the GI50 (MOLT-4) was 7.1 µM (inactive) and the GI50 (HL-60) was 6.93 µM (inactive). For the same compound, the GI50 (EKVX) was 14.2 µM (inactive), the GI50 (SNB-78) was 19.1 µM (inactive) and the GI50 (KM12) was 16.5 µM (inactive). The GI50 (SF-295) was 19.9 µM (inactive), the GI50 (OVCAR-5) was 21.5 µM (inactive) and the GI50 (UACC-257) was 16.8 µM (inactive). The GI50 (DMS-273) was 13.4 µM (inactive), the GI50 (786-0) was 10.2 µM (inactive) and the GI50 (XF498) was 16.7 µM (inactive). The GI50 (U-251) was 12.5 µM (inactive), the GI50 (CCRF-CEM) was 9.1 µM (inactive) and the GI50 (A498) was 21.2 µM (inactive). The GI50 (M19-MEL) was 17.1 µM (inactive), the GI50 (HCT-15) was 17.5 µM and the GI50 (M14) was 13.3 µM (inactive). For the same compound, the GI50 (IGROV-1) was 27 µM (inactive), the GI50 (NCI-H23) was 14.1 µM (inactive) and the GI50 (HOP-92) was 22.9 µM (inactive). For the same compound, the GI50 (Malme-3M) was 14.9 µM (inactive), the GI50 (SF-539) was 35.7 µM (inactive) and the GI50 (UO-31) was 23.7 µM (inactive). For the same compound, the GI50 (SW-620) was 17.9 µM (inactive), the GI50 (NCI-H226) was 20.5 µM (inactive) and the GI50 (ACHN) was 18.2 µM (inactive). For the same compound, the GI50 (HCT-116) was 15.4 µM (inactive), the GI50 (COLO 205) was 14.5 µM (inactive) and the GI50 (NCI-H460) was 14.6 µM (inactive). The GI50 (SN12C) was 11.2 µM (inactive), the GI50 (SK-OV-3) was 26.7 µM (inactive) and the GI50 (K562) was 12.5 µM (inactive). The GI50 (SNB-19) was 35.5 µM (inactive), the GI50 (RPMI-8226) was 7.96 µM (inactive) and the GI50 (CAKI-1) was 19.6 µM (inactive). The GI50 (TK-10) was 24.9 µM (inactive), the GI50 (SNB-75) was 23.4 µM (inactive) and the GI50 (LXFL 529) was 25.2 µM (inactive). The GI50 (NCI-H522) was 3.2 µM (inactive), the GI50 (HT-29) was 15.5 µM (inactive) and the GI50 (OVCAR-4) was 17.1 µM (inactive). For the same compound, the GI50 (DLD-1) was 19.4 µM (inactive).

Reference: ChEMBL document CHEMBL1201862, “PubChem BioAssay data set” (2004)
